Experiment [1] can be described thus: DRUGMATRIX: Glutamate, AMPA radioligand binding (ligand: [3H] AMPA). The format is cell membranes, Rattus norvegicus, Wistar, Cerebral cortex, Membrane. The conditions noted are these: Not Active = under 50% inhibition at 10 µM.
Experiment [2] is described as follows: DRUGMATRIX: Phorbol Ester radioligand binding (ligand: [3H] PDBu). As to conditions: Not Active = under 50% inhibition at 10 µM. The format is cell membranes, Mus musculus, ICR, Brain, Membrane.
The target of experiment [3] is Sodium-dependent dopamine transporter (Homo sapiens, UniProt Q01959). Put plainly: DRUGMATRIX: Dopamine Transporter radioligand binding (ligand: [125I] RTI-55). As to conditions: Not Active = under 50% inhibition at 10 µM; for pIC50: read-out: IC50; for pKi: read-out: Ki; for IC50: cho-k1. It counts as cell membranes, CHO-K1, Membrane.
Experiment [4] has as its target T1, 5-hydroxytryptamine receptor 1A (Rattus norvegicus, UniProt P19327). Note: in other assays of this panel Not Active means under 50% inhibition at 10 µM.
T1 sequence (P19327 whole entry): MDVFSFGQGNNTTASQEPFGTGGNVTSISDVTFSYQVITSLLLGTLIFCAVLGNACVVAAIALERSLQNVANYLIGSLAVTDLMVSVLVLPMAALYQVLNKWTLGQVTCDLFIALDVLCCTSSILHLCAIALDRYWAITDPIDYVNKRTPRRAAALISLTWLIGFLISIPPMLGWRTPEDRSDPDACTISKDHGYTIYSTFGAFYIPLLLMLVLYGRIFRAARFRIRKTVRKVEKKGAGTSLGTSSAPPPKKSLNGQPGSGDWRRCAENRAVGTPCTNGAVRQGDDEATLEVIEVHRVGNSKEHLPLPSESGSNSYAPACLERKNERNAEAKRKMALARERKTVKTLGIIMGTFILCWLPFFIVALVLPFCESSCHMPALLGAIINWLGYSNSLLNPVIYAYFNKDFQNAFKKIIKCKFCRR
The format is cell membranes, CHO-K1, Membrane. The conditions noted are these: for pIC50: read-out: IC50; for pKi: read-out: Ki; for IC50: cho-k1.

A further experiment deals with T2, Progesterone receptor (Bos taurus, UniProt Q690N0).
T2 sequence (Q690N0 whole entry): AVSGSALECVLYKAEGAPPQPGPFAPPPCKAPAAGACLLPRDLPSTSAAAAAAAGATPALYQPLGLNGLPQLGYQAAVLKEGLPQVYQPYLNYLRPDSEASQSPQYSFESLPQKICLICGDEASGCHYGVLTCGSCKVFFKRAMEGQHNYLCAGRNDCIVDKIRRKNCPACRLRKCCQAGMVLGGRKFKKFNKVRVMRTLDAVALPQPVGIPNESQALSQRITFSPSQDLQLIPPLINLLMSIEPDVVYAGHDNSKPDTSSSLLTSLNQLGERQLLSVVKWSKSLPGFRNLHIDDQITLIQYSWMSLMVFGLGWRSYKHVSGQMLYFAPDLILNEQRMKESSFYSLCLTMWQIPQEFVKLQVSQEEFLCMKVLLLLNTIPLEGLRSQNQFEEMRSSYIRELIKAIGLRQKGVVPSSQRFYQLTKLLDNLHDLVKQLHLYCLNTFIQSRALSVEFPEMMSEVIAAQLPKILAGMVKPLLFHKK
Put plainly: DRUGMATRIX: Progesterone radioligand binding (ligand: [3H] R-5020). The format is tissue-based, Uterus. The conditions noted are these: Not Active = under 50% inhibition at 10 µM; for pIC50: read-out: IC50; for pKi: read-out: Ki.

The target of another experiment is Melanocortin receptor 4 (Homo sapiens, UniProt P32245). It counts as cell membranes, HEK293, Membrane. As to conditions: for IC50: hek293. For all read-outs here: in other assays of this panel Not Active means under 50% inhibition at 10 µM.

pIC50, pKi: −log10 of the molar value.

Sequence of Melanocortin receptor 4 (P32245 whole entry): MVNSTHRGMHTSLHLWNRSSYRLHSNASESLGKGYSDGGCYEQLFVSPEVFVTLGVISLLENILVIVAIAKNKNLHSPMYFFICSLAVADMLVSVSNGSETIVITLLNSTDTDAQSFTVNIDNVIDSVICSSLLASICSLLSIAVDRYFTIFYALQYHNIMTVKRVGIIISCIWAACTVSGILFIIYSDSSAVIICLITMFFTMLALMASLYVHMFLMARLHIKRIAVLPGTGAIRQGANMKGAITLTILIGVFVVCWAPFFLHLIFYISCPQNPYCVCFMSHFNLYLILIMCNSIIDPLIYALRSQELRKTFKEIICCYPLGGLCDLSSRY
Sequence of Sodium-dependent dopamine transporter (Q01959 whole entry): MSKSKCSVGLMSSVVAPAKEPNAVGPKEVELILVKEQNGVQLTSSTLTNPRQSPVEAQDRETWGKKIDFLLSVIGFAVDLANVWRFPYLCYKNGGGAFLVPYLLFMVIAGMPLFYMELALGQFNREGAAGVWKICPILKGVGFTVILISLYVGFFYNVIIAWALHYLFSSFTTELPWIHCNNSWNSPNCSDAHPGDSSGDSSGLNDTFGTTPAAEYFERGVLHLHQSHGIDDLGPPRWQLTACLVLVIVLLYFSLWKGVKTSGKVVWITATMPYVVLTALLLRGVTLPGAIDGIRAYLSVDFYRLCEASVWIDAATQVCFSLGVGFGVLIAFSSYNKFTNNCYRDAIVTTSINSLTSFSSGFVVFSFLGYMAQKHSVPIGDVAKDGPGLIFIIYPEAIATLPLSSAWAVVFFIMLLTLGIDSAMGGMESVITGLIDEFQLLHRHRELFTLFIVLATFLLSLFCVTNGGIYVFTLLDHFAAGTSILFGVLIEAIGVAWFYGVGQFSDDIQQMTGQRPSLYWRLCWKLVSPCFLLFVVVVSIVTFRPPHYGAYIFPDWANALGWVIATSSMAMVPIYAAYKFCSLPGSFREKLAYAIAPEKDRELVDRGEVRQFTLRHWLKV

For orientation: pIC50 means the IC50 on a negative log10 scale, so that one unit is a factor of ten. As usually defined, the pKi is the negative decadic logarithm of the Ki, by convention in mol/L. As for `CC(C)(C)NC(=O)[C@@H]1C[C@@H]2CCCC[C@@H]2CN1C[C@@H](O)[C@H](Cc1ccccc1)NC(=O)[C@H](CC(N)=O)NC(=O)c1ccc2ccccc2n1`, the IC50 result (in experiment [1]; in experiment [2]; on Progesterone receptor; at Melanocortin receptor 4) was “Not Active” each time. Further, the Ki result in experiment [1] and in experiment [2] was “Not Active” throughout. In addition, the results for the pIC50 in experiment [3] and in experiment [4] were 4.45 and 5.37, respectively. In addition, the results for the negative-log Ki (pKi) in experiment [3] and in experiment [4] were 4.55 and 5.61, respectively.
For `CC(=O)[C@@]1(O)CC[C@H]2[C@@H]3C[C@H](C)C4=CC(=O)CC[C@]4(C)[C@H]3CC[C@@]21C`, the IC50 entry (in experiment [1]; in experiment [2]; in experiment [3]; in experiment [4]; at Melanocortin receptor 4) was “Not Active” in each case. For the same compound, the Ki result in experiment [1] and in experiment [2] was “Not Active” in each case. Further, the pIC50 at Progesterone receptor was 6.15. In addition, the pKi on Progesterone receptor is 7.03.
Regarding `N[C@@H](Cc1ccc(N(CCCl)CCCl)cc1)C(=O)O`, the IC50 entry (in experiment [1]; in experiment [2]; in experiment [3]; in experiment [4]; on Progesterone receptor; against Melanocortin receptor 4) was “Not Active” each time. Also, the Ki entry in experiment [1] and in experiment [2] was “Not Active” throughout.
For the compound `CCCCc1oc2ccccc2c1C(=O)c1cc(I)c(OCCN(CC)CC)c(I)c1` [AMIODARONE], the IC50 result (in experiment [4]; on Progesterone receptor) was “Not Active” each time.
In the case of `OCCN(CCO)c1nc(N2CCCCC2)c2nc(N(CCO)CCO)nc(N3CCCCC3)c2n1` [DIPYRIDAMOLE], the IC50 entry (in experiment [1]; in experiment [2]; in experiment [3]; in experiment [4]; on Progesterone receptor; against Melanocortin receptor 4) was “Not Active” in each case. Besides, the Ki result in experiment [1] and in experiment [2] was “Not Active” in each case.
Regarding `Cc1oncc1C(=O)Nc1ccc(C(F)(F)F)cc1` [LEFLUNOMIDE], the IC50 result (in experiment [1]; in experiment [2]; in experiment [4]; on Progesterone receptor; against Melanocortin receptor 4) was “Not Active” each time. For the same compound, the Ki entry in experiment [1] and in experiment [2] was “Not Active” throughout. Besides, in experiment [3], the pIC50 was 5.54. In addition, in experiment [3], the pKi was 5.64.
In the case of `c1ccc([C@H]2CN3CCSC3=N2)cc1` [LEVAMISOLE], the IC50 result (in experiment [1]; in experiment [2]; in experiment [3]; in experiment [4]; on Progesterone receptor; against Melanocortin receptor 4) was “Not Active” in each case. In addition, the Ki entry in experiment [1] and in experiment [2] was “Not Active” throughout.
For the compound `N[C@@H](Cc1ccc(O)c(O)c1)C(=O)O` [LEVODOPA], the IC50 entry (in experiment [1]; in experiment [2]; in experiment [3]; in experiment [4]; at Progesterone receptor; against Melanocortin receptor 4) was “Not Active” each time. The Ki result in experiment [1] and in experiment [2] was “Not Active” each time.
With `N[C@@H](Cc1cc(I)c(Oc2ccc(O)c(I)c2)c(I)c1)C(=O)O` [LIOTHYRONINE], the IC50 result (in experiment [3]; in experiment [4]; on Progesterone receptor; against Melanocortin receptor 4) was “Not Active” in each case.
For the compound `O=NN(CCCl)C(=O)NC1CCCCC1` [LOMUSTINE], the IC50 entry (in experiment [1]; in experiment [2]; in experiment [3]; in experiment [4]; on Progesterone receptor; against Melanocortin receptor 4) was “Not Active” in each case. The Ki result in experiment [1] and in experiment [2] was “Not Active” in each case.
`CCOC(=O)N1CCC(=C2c3ccc(Cl)cc3CCc3cccnc32)CC1` [LORATADINE]: the IC50 result (in experiment [1]; in experiment [2]; in experiment [3]; in experiment [4]; at Progesterone receptor; at Melanocortin receptor 4) was “Not Active” each time. In addition, the Ki result in experiment [1] and in experiment [2] was “Not Active” each time.
Turning to `Cn1ccnc1S` [METHIMAZOLE], the IC50 result (in experiment [1]; in experiment [2]; in experiment [3]; in experiment [4]; on Progesterone receptor; against Melanocortin receptor 4) was “Not Active” each time. Also, the Ki entry in experiment [1] and in experiment [2] was “Not Active” in each case.
In the case of `CC[C@@H](CO)NC(=O)[C@@H]1C=C2c3cccc4[nH]cc(c34)C[C@H]2N(C)C1` [METHYLERGONOVINE], the IC50 result (in experiment [1]; in experiment [2]; in experiment [3]; at Progesterone receptor; at Melanocortin receptor 4) was “Not Active” throughout. The Ki result in experiment [1] and in experiment [2] was “Not Active” each time. In addition, the pIC50 in experiment [4] was 8.39. For the same compound, in experiment [4], the negative-log Ki (pKi) was 8.63.
With `COc1nc(C)nc(Cl)c1NC1=NCCN1` [MOXONIDINE], the IC50 entry (in experiment [1]; in experiment [2]; in experiment [3]; on Progesterone receptor; against Melanocortin receptor 4) was “Not Active” each time. The Ki entry in experiment [1] and in experiment [2] was “Not Active” each time. Moreover, the pIC50 in experiment [4] is 6.15. Moreover, the pKi in experiment [4] is 6.40.
With `COc1c(C)c2c(c(O)c1C/C=C(\C)CCC(=O)O)C(=O)OC2` [MYCOPHENOLIC ACID], the IC50 result (in experiment [1]; in experiment [2]; in experiment [3]; in experiment [4]; at Progesterone receptor; at Melanocortin receptor 4) was “Not Active” in each case. Further, the Ki result in experiment [1] and in experiment [2] was “Not Active” throughout.
Turning to `O=c1ncn2nc(Sc3ccc(F)cc3F)ccc2c1-c1c(Cl)cccc1Cl` [NEFLAMAPIMOD], the IC50 result (in experiment [1]; in experiment [2]; in experiment [4]; on Progesterone receptor; on Melanocortin receptor 4) was “Not Active” each time. Besides, the Ki result in experiment [1] and in experiment [2] was “Not Active” each time. Besides, the pIC50 in experiment [3] is 5.09. The negative logarithm of the Ki (pKi) in experiment [3] is 5.19.
For `CN1CCN(CCCN2c3ccccc3Sc3ccc(Cl)cc32)CC1` [PROCHLORPERAZINE], in experiment [4], the pIC50 is 6.02 and the pKi is 6.27. Further, on Progesterone receptor, the IC50 result was “Not Active”. For the same compound, the IC50 result at Melanocortin receptor 4 is listed as “Not Active”.
Take `CO[C@H]1/C=C/O[C@@]2(C)Oc3c(C)c(O)c4c(O)c(c(/C=N/N5CCN(C)CC5)c(O)c4c3C2=O)NC(=O)/C(C)=C\C=C\[C@H](C)[C@H](O)[C@@H](C)[C@@H](O)[C@@H](C)[C@H](OC(C)=O)[C@@H]1C` [RIFAMPIN]: the IC50 entry (in experiment [1]; in experiment [2]; in experiment [3]; in experiment [4]; on Progesterone receptor; at Melanocortin receptor 4) was “Not Active” throughout. Moreover, the Ki entry in experiment [1] and in experiment [2] was “Not Active” in each case.
On to `Nc1nc2ccc(OC(F)(F)F)cc2s1` [RILUZOLE], for which the IC50 entry (in experiment [1]; in experiment [2]; in experiment [3]; in experiment [4]; on Progesterone receptor; on Melanocortin receptor 4) was “Not Active” throughout. For the same compound, the Ki result in experiment [1] and in experiment [2] was “Not Active” each time.
`Cc1nc2n(c(=O)c1CCN1CCC(c3noc4cc(F)ccc34)CC1)CCCC2` [RISPERIDONE]: the IC50 entry (in experiment [3]; on Progesterone receptor; against Melanocortin receptor 4) was “Not Active” in each case.
For `CC/C(=C(\c1ccccc1)c1ccc(OCCN(C)C)cc1)c1ccccc1` [TAMOXIFEN], the negative logarithm of the IC50 (pIC50) in experiment [3] is 5.73; in experiment [4], 4.92; at Progesterone receptor, 4.70; at Melanocortin receptor 4 (read-out: IC50), 4.52. Further, the pKi was 5.84 in experiment [3], 5.16 in experiment [4], 5.59 on Progesterone receptor and 4.53 at Melanocortin receptor 4 (read-out: Ki).
Consider `CC(C)N1CCN(c2ccc(OCC3COC(Cn4cncn4)(c4ccc(Cl)cc4Cl)O3)cc2)CC1` (stereo not drawn) [TERCONAZOLE], for which the IC50 entry (in experiment [1]; in experiment [2]; in experiment [4]; on Progesterone receptor; against Melanocortin receptor 4) was “Not Active” throughout. Further, the Ki result in experiment [1] and in experiment [2] was “Not Active” throughout.

For the origin of these results see ChEMBL document CHEMBL1909046, “DrugMatrix in vitro pharmacology data”.
